# From patent US20140287454A1, “SUSCEPTIBILITY TO SELECTIVE CDK9 INHIBITORS” (MAX-PLANCK-GESELLSCHAFT ZUR FÖRDERUNG DER WISSENSCHAFTEN …, priority 2011, published 2014)
# Key:
# [1] = test system: HCC2429 cells; assay: Proliferation / cell viability assay (Cell Titer Glo) on HCC2429; format: cell-based; settings: FIG. 1; for IC50: 72 h incubation, ATP content by CTG; for effect on proliferation of HCC2429 cells, in words: dose response experiments
# Method: Proliferation assays were performed as described below under materials and methods. […] (Cpd B1 and Ro-3306) were applied at concentrations between 30 and 0.0137 μM. After 72 h incubation with compounds ATP content/proliferation was determined employing CTG (Promega). Relative proliferation values (compared to vehicle control) were used to calculate IC50 values (Excel fit; algorithm #205). IC50s of the respective compound (Y-axis; logarithmic scale) on proliferation of various cell lines (X-axis) are depicted in black bars. White bars indicate that an IC50 could not be determined due to too low activity and therefore was higher than the highest applied concentration in the assays (30 μM). IC50s of compounds on CDK9 inhibitor sensitive cell line HCC2429 are presented in grey bars.
# Cell lines were maintained in RPMI 1640 cell culture medium+glutamine (PAN Biotech GmbH, Aidenbach, Germany; order no. P04-22100; P04-05500) supplemented with 10% fetal calf serum “Gold” (PAA Laboratories GmbH, Pasching, Austria; order no. A15-151) and grown in a humidified atmosphere at 37° C., 5% CO2. As a first step, an optimal cell density for each cell line was determined to guarantee linearity. For viability assays with compounds, cells were then seeded at a density of 200 to 1000 per well in 25 μl in 384-well plates (Greiner Bio-One, Frickenhausen, Germany; order no. 781080). After overnight incubation at 37° C./5% CO2, 25 nl or 75 nl compounds were added to each sample well by using BIOMEK FX^P Laboratory Automation Workstation (Beckman Coulter, USA). Wells with cells and 0.1% or 0.3% DMSO in culture medium were used as positive controls, wells with cells and 10 μM staurosporine (Selleck Chemicals, Huston, USA) in culture medium were used as negative controls. Upon incubation with compounds for 72 h at 37° C./5% CO2 25 μl Cell Titer Glo reagent (Promega, Madison, USA, order no. G7573; 1:2 diluted with cell culture medium) was added to each well to determine cell viability. 384well-plates were placed for 2 min on an orbital microplate shaker and incubated for further 10 min at room temperature resulting in a stabilization of light signal. Luminescence was measured by Envision Plate Reader (Perkin Elmer, USA). IC50 values were calculated with the software Excel Fit (IDBS, Guildford, UK) from 3-fold dilution series comprising 8 concentrations in duplicates.
# [2] = biological target: T1, CDK9/CycT (Homo sapiens, UniProt P50750); assay: Radiometric protein kinase assay (33PanQinase Activity Assay), kinase selectivity; format: biochemical; settings: 23 different kinases, 10 μM compound versus DMSO control; FIG. 3
# T1 construct: purchased ProQinase
# T1 sequence (P50750 whole entry): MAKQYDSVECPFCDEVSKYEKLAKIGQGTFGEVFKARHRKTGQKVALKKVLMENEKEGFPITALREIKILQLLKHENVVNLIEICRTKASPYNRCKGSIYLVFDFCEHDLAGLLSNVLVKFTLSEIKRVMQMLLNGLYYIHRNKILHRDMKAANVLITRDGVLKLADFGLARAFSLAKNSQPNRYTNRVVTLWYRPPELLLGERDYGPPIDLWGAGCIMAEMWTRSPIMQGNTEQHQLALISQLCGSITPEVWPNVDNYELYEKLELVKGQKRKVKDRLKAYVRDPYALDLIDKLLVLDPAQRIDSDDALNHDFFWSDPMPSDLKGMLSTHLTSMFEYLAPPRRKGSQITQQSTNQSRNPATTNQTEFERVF
# T1 sequence (O60563 whole entry partner): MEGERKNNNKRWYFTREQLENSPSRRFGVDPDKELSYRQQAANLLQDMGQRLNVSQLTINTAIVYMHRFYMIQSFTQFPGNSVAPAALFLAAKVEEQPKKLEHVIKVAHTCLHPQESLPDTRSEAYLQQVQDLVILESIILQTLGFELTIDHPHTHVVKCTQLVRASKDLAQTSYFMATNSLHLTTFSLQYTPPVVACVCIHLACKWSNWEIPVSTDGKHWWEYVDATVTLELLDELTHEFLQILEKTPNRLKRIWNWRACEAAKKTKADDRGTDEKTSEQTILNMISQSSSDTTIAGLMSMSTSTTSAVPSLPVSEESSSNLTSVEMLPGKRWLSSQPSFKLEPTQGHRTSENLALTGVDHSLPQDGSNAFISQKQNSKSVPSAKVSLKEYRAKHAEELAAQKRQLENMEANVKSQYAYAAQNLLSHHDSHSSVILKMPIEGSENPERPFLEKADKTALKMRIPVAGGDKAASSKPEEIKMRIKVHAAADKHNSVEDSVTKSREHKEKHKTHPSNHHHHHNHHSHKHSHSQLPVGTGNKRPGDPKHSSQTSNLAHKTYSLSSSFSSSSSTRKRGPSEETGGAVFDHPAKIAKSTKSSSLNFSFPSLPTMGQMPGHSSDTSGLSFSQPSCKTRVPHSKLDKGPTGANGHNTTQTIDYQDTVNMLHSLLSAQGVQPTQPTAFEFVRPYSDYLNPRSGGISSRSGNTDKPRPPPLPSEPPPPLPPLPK
# Method: A radiometric protein kinase assay (33PanQinase® Activity Assay) was used for measuring the kinase activity of protein kinases employing exemplary CDK9 inhibitors to be used in the present invention (see FIG. 3). […] Activities of other kinases are not inhibited.
# A similar experimental procedure is performed when the resulting activity within ^33PanQinase® assay is done. In advance buffers are prepared but in this case the pipetting sequence is first ATP solution diluted with assay buffer, DMSO or compound solution. The reaction (1 h at 30° C.) is started by addition of a substrate-kinase mix. During the incubation the kinase phosphorylates the substrate (different for each kinase). Due to the fact that the ATP solution contains ^33P-labelled ATP the substrate proteins are labeled with ^33P. The reaction is stopped by addition of excess H3PO4. If the reaction is performed in plates binding substrate proteins, said plates are washed to reduce unspecific signals (mainly not used ATP). […] Therefore, the incorporated radioactivity is detected by scintillation counting. Data is evaluated, processed and analyzed as described for the LANCE assays. […]
# The reaction cocktails were incubated at 30° C. for 60 minutes. […] Incorporation of 33Pi (counting of “cpm”) was determined with a microplate scintillation counter (Microbeta, Wallac).
# [3] = biological target: T2, CDK9/CyclinT1 (Homo sapiens, UniProt P50750); assay: Lance Ultra KinaSelect Assay, CDK9; format: biochemical; settings: FIG. 2
# T2 construct: purchased Invitrogen
# T2 sequence (P50750 whole entry): as the sequence (P50750 whole entry) above
# T2 sequence (O60563 whole entry partner): as the sequence (O60563 whole entry partner) above
# Excerpt: (§1) The principle behind this enzymatic assay is based upon the phosphorylation of the Ulight-Peptide Substrat. It is detected by using a specific EU-labeled anti-phospho peptide antibody. […] Binding of an inhibitor to the kinase prevents phosphorylation of the Ulight-MBP Substrat, resulting in a loss of FRET.
# as §1
# This compound predilution was then serial diluted 1:3 over 8 steps in DMSO and briefly spun down. Each compound solution was now diluted 1:20 in Enzymatic Buffer (HEPES: 50 mM, pH: 7.5; MgCl2: 10 mM; EGTA: 1 mM; DTT: 2 mM; Tween-20: 0.01%), mixed thoroughly and spun down.
# [4] = test system: BrdNut mutated cell lines (HCC2429, TY-82, 690100, 143100); assay: Proliferation assay on Brd-4-Nut mutated versus wild type cell lines (FIG. 4); format: cell-based; settings: mutated: HCC2429, TY-82, 690100, 143100, wild type: Hela, HCC366, H460, HCC1143, hPBMCs
# Method: The proliferation results are presented as IC50 in μM. First, the anti-proliferative effect of CDK9 inhibitors is much more pronounced on BrdNut mutated cell lines (=sensitive cell lines).
# Cell lines were maintained in RPMI 1640 cell culture medium+glutamine (PAN Biotech GmbH, Aidenbach, Germany; order no. P04-22100; P04-05500) supplemented with 10% fetal calf serum “Gold” (PAA Laboratories GmbH, Pasching, Austria; order no. A15-151) and grown in a humidified atmosphere at 37° C., 5% CO2. As a first step, an optimal cell density for each cell line was determined to guarantee linearity. For viability assays with compounds, cells were then seeded at a density of 200 to 1000 per well in 25 μl in 384-well plates (Greiner Bio-One, Frickenhausen, Germany; order no. 781080). After overnight incubation at 37° C./5% CO2, 25 nl or 75 nl compounds were added to each sample well by using BIOMEK FX^P Laboratory Automation Workstation (Beckman Coulter, USA). Wells with cells and 0.1% or 0.3% DMSO in culture medium were used as positive controls, wells with cells and 10 μM staurosporine (Selleck Chemicals, Huston, USA) in culture medium were used as negative controls. […] Luminescence was measured by Envision Plate Reader (Perkin Elmer, USA). […]
Compound,"IC50 ([1]; Homo sapiens, HCC2429)","effect on proliferation of HCC2429 cells, in words [1]","residual kinase activities / kinase selectivity, in words [2]",IC50 [1],"CDK9 inhibition potency, in words [3]","proliferation inhibition in mutated, sensitive cell lines compared with wild type cell lines, in words [4]"
"COc1ccccc1-c1ncnc(Nc2cccc(CS(N)(=O)=O)c2)n1 [Cpd B1, 3-[(4-(2-Methoxyphenyl)-1,3,5-triazin-2-yl)amino]benzenemethanesulfonamide]",151 nM,potently affected proliferation,inhibits only CDK9 with high potency,–,–,–
O=C1NC(=NCc2cccs2)S/C1=C\c1ccc2ncccc2c1 [Ro-3306],–,did not show comparable effects,–,> 10000 nM,–,–
"COc1ccccc1-c1cc(Nc2cccc(CS(N)(=O)=O)c2)ncn1 [1073485-20-7P, 3-[[6-(2-methoxyphenyl)-4-pyrimidinyl]amino]-Benzenemethanesulfonamide]",–,–,–,–,relatively weak,"much more potent in mutated, sensitive cell lines"
